Source: paper PMC11641365, “Evaluation of In Vitro Biological Activity of Flavanone/Chromanone Derivatives: Molecular Analysis of Anticancer Mechanisms in Colorectal Cancer” (International Journal of Molecular Sciences, 2024)
Where two headings read alike, the source gives them in different places.

Columns and labels:
Type in all cases: cell-based, human
Caco-2 = assay: MTT cell viability assay; details: 24 h incubation with compound, mean ± SD of three experiments, read-out: Cytotoxic effect, IC50
Procedure: The cytotoxic activity of the 3-benzylideneflavanones, 3-benzylidenechromanones derivatives (compounds 1, 2, 3, 4, 5) and 5′-(3-methoxyphenyl)-2-phenyl-4′,5′-dihydro-4H-spiro[chromano-3,3′-pirazol]-4-one (compound 3a) was evaluated using the MTT assay (4,5-dimethylthiazol-2-yl)-2,5-diphenyltetrazoliumbromide), a colorimetric method that quantifies cell viability.
Cell viability was determined using the metabolic microplate spectrophotometric assay with Methylthiazolyl diphenyltetrazolium bromide (MTT) (Sigma-Aldrich; St. Louis, MO, USA). The MTT method belongs to metabolic tests for determining cell viability and consists of measuring the absorbance of a violet solution of formazan, a product of the reduction of a water-soluble yellow MTT by oxidoreductive enzymes (mainly mitochondrial succinate dehydrogenase) of living cells. The amount of the reaction product (water-insoluble formazan crystals) is proportional to the number of living and metabolically active cells in the sample. In the case of damaged or dead cells, formazan is formed in smaller amounts, or it is not formed.
The appropriate number of cells for a given cell line (6–8 × 10^3 cells/mL) were seeded onto colorless, sterile 96-well microplates (Nunc, Roskilde, Denmark) in the number appropriate for a given cell line. After 24 h of culture, various concentrations of the studied compounds (10^−7–10^−5 M) freshly prepared in DMSO (final concentration DMS < 0.1%) and diluted with complete culture medium were added and incubated in a CO2 incubator for 24 h. After this time, the medium was removed; the cell monolayer was washed twice with sterile PBS solution; and fresh culture medium was added to the microplate wells. After 48 h of cell culture, the MTT test was performed. A volume of 50 μL of tetrazolium salt solution (final concentration 0.05 mg/mL) was added to each microplate well. The microplate was placed for 3–4 h (depending on the cell line) in a CO2 incubator. After incubation, 100 μL of DMSO was added to the wells of the microplate to dissolve the purple formazan crystals formed in the living cell environment. The absorbance of the formazan solution, after gentle mixing, was read at a wavelength of λ = 580 nm and a reference wavelength of λ = 720 nm (Biotek Power Wave HT, Biotek Instruments, Winooski, VT, USA). The percentage of living cells was calculated by comparing the absorbance value of the tested samples with the absorbance value of the control (cells not treated with compounds). The absorbance of the control was taken as 100%.

LoVo [1] = assay: Intracellular GSH level, monochlorobimane (MCB) probe; details: compound at IC50, 24 h, vs control
Procedure: (§1) The spectrofluorimetric method with monochlorobimane (MCB; Sigma-Aldrich; St. Louis, MO, USA) was used to determine GSH. Monochlorobimane reacts with glutathione in a reaction catalyzed by cellular glutathione S-transferase. The reaction produces a fluorescent bimane-glutathione conjugate (GSH-MCB). A major advantage of MCB is its ability to penetrate the cell membrane, which is why it is used as a probe to determine the amount of GSH in living cells.
(§2) Cells were seeded in black 96-well fluorometric microplates at a density of 10 × 10^3 cells/mL. […] Following compound incubation, the medium was removed, and the cell monolayers were washed twice with HBSS (140 mM NaCl, 5 mM KCl, 0.8 mM MgCl2, 1.8 mM CaCl2, 1 mM Na2HPO4, 10 mM HEPES, and 1% glucose). A solution of MCB at a final concentration of 40 μM was added to each well and incubated in a CO2 cell culture incubator at 37 °C for 20 min. A 40 mM MCB stock solution was prepared by dissolving 9 mg of the reagent in 1 mL of absolute ethanol. Fluorescence was measured using a Perkin-Elmer LS-5B spectrofluorometer (Waltham, MA, USA) at the following excitation and fluorescence emission wavelengths: λex = 380 nm/λem = 470 nm. After incubation with MCB, the cells were lysed with 50 μL of lysis buffer (10 mM TRIS-HCl; pH 8 containing 0.1% Triton X-100). In order to normalize the number of cells in individual samples, the amount of DNA was determined by adding 50 μL of ethidium bromide (EB, final concentration 0.2 mM) to each well after measuring the MCB fluorescence and measuring the EB fluorescence at an excitation wavelength of λex = 530 nm and an emission wavelength of λem = 590 nm. The results obtained using the standard curve were converted to nM of GSH.

SW620 [2] = assay: as above; details: compound at IC50, 24 h, vs control
Procedure: as §1, §2

HCT 116 = assay: Cell cycle analysis via flow cytometry (propidium iodide); details: compound at IC50, 24 h, vs control
Procedure: (§3) The most commonly used fluorescent dyes for cell cycle analysis are fluorochromes that penetrate the cell membrane into the interior of permeabilized cells and bind stoichiometrically to DNA via intercalation, e.g., DAPI, propidium iodide (PI). The analysis is performed on cells fixed in ethanol. In this work, the cell cycle analysis was performed using the method described by Darzynkiewicz and Juan.
(§4) Cells (10 × 10^3) were seeded in 35 mm dishes and cultured in the medium for 24 h to attain the logarithmic growth phase. […] Subsequently, cells were trypsinized and centrifuged for 10 min at 400× g at 4 °C. The cell suspension in 100 μL of PBS was fixed in 1 mL of 70% ethanol (−20 °C) and stored at this temperature until analysis. Immediately before analysis, the ethanol-fixed cell suspension was centrifuged at 10,000 rpm for 10 min at 4 °C. The pellet was washed with cold (4 °C) PBS to remove residual ethanol, and the cell suspension was centrifuged again under the same conditions. A volume of 300 μL of PBS containing 4 mg/mL propidium iodide (final concentration 75 μM) and 1 mg/mL RNAse A (final concentration 20 μg/mL) was added to the cell pellet and incubated for at least 30 min at 37 °C in the dark. Stained cells were analyzed using a flow cytometer (Becton Dickinson, Franklin Lakes, NJ, USA), counting 10,000 cells in each sample. Data were analyzed using FlowJo 10.10 software (FlowJo, Williamson Way Ashland, OR, USA).

LoVo [3] = assay: as above; details: compound at IC50, 24 h, vs control
Procedure: as §3, §4

SW620 [4] = assay: as above; details: compound at IC50, 24 h; for Increase in the G2/M phase cell fraction: vs control
Procedure: as §3, §4

O=C1/C(=C/c2ccccc2)COc2ccccc21 [Compound 1]
IC50 (Caco-2; Homo sapiens, Caco-2, 24 h): 10.2 ± 1.8 µM
Decrease in GSH levels (LoVo [1]): 30–35%
Decrease in GSH levels (SW620 [2]): 40%
Increase in the G2/M phase cell fraction (HCT 116): approximately 10%
Increase in the G2/M phase cell percentage (LoVo [3]): approximately 10%
Change in cell cycle parameters or G2/M phase arrest (SW620 [4]): no statistically significant changes

COc1cccc(/C=C2/C(=O)c3ccccc3OC2c2ccccc2)c1 (centres unmarked) [Compound 3]
IC50 (Caco-2): 69.9 ± 5.1 µM
IC50 (Caco-2; Homo sapiens, Caco-2, 24 h): ~70 µM
Decrease in GSH levels (LoVo [1]): 30–35%
Decrease in GSH levels (SW620 [2]): 30%
Increase in the G2/M phase cell fraction (HCT 116): approximately 30%
Increase in the G2/M phase cell percentage (LoVo [3]): approximately 35%
Increase in the G2/M phase cell fraction (SW620 [4]): approximately 20%

O=C1/C(=C/c2ccccc2)C(c2ccccc2)Oc2ccccc21 (centres unmarked) [Compound 5]
IC50 (Caco-2): 72.1 ± 1.7 µM
IC50 (Caco-2; Homo sapiens, Caco-2, 24 h): ~70 µM
Decrease in GSH levels (LoVo [1]): 30–35%
Decrease in GSH levels (SW620 [2]): 30%
Increase in the G2/M phase cell fraction (HCT 116): 20%
Increase in the G2/M phase cell percentage (LoVo [3]): approximately 20%
Increase in the G2/M phase cell fraction (SW620 [4]): ~13%
